Measurements taken from the NIST ThermoML archive (doi:10.1021/je060271a).

Conditions: Liquid, Vibrating tube method

CCCCCCC(=O)OCC(COC(=O)CCCCCC)(COC(=O)CCCCCC)COC(=O)CCCCCC [pentaerythritol tetraheptanoate]
Conditions | mass density [kg/m3]
343.16 K, 13701 kPa | 950.5
343.16 K, 13714 kPa | 950.6
343.16 K, 13726 kPa | 950.6
343.16 K, 13738 kPa | 950.7
343.16 K, 13753 kPa | 950.7
343.16 K, 13764 kPa | 950.6
343.16 K, 13779 kPa | 950.7
343.16 K, 13792 kPa | 950.7
343.16 K, 13806 kPa | 950.8
343.16 K, 13818 kPa | 950.6
343.16 K, 14528 kPa | 951.2
343.16 K, 14542 kPa | 951.2
343.16 K, 16080 kPa | 952.4
343.16 K, 16100 kPa | 952.3
343.16 K, 16118 kPa | 952.2
343.16 K, 32564 kPa | 962.8
343.16 K, 32603 kPa | 963
343.16 K, 32650 kPa | 963.1
343.16 K, 32688 kPa | 963
343.17 K, 14556 kPa | 951.3
343.17 K, 14573 kPa | 951.2
343.17 K, 14631 kPa | 951.4
343.17 K, 14645 kPa | 951.3
343.17 K, 14662 kPa | 951.3
343.17 K, 14676 kPa | 951.3
343.17 K, 14690 kPa | 951.3
343.17 K, 14707 kPa | 951.4
343.17 K, 14721 kPa | 951.4
343.17 K, 14735 kPa | 951.3
343.17 K, 14750 kPa | 951.3
343.17 K, 14767 kPa | 951.3
343.17 K, 14782 kPa | 951.4
343.17 K, 14796 kPa | 951.5
343.17 K, 14814 kPa | 951.5
343.17 K, 14828 kPa | 951.3
343.17 K, 14843 kPa | 951.4
343.17 K, 14858 kPa | 951.4
343.17 K, 14873 kPa | 951.5
343.17 K, 14890 kPa | 951.5
343.17 K, 14902 kPa | 951.5
343.17 K, 14922 kPa | 951.4
343.17 K, 14937 kPa | 951.4
343.17 K, 14952 kPa | 951.5
343.17 K, 14966 kPa | 951.6
343.17 K, 14984 kPa | 951.7
343.17 K, 14999 kPa | 951.6
343.17 K, 15013 kPa | 951.5
343.17 K, 15032 kPa | 951.7
343.17 K, 15048 kPa | 951.5
343.17 K, 15063 kPa | 951.4
343.17 K, 15077 kPa | 951.6
343.17 K, 15092 kPa | 951.6
343.17 K, 15110 kPa | 951.6
343.17 K, 15125 kPa | 951.6
343.17 K, 15140 kPa | 951.7
343.17 K, 15158 kPa | 951.6
343.17 K, 15173 kPa | 951.7
343.17 K, 15191 kPa | 951.6
343.17 K, 15206 kPa | 951.6
343.17 K, 15221 kPa | 951.7
343.17 K, 15240 kPa | 951.7
343.17 K, 15255 kPa | 951.6
343.17 K, 15270 kPa | 951.8
343.17 K, 15286 kPa | 951.7
343.17 K, 15305 kPa | 951.7
343.17 K, 15320 kPa | 951.9
343.17 K, 15338 kPa | 951.6
343.17 K, 15354 kPa | 951.8
343.17 K, 15369 kPa | 951.6
343.17 K, 15387 kPa | 951.9
343.17 K, 15403 kPa | 951.8
343.17 K, 15419 kPa | 952
343.17 K, 15437 kPa | 951.8
343.17 K, 15453 kPa | 951.8
343.17 K, 15469 kPa | 951.8
343.17 K, 15488 kPa | 951.9
343.17 K, 15504 kPa | 951.9
343.17 K, 15520 kPa | 951.9
343.17 K, 15536 kPa | 951.9
343.17 K, 15555 kPa | 951.9
343.17 K, 15571 kPa | 952
343.17 K, 15587 kPa | 951.9
343.17 K, 15606 kPa | 951.8
343.17 K, 15622 kPa | 952
343.17 K, 15638 kPa | 952.1
343.17 K, 15655 kPa | 952.1
343.17 K, 15674 kPa | 952.1
343.17 K, 15691 kPa | 952
343.17 K, 15707 kPa | 952
343.17 K, 15724 kPa | 952.2
343.17 K, 15743 kPa | 952
343.17 K, 15759 kPa | 952.1
343.17 K, 15778 kPa | 952
343.17 K, 15795 kPa | 952.1
343.17 K, 15812 kPa | 952.2
343.17 K, 15831 kPa | 952.1
343.17 K, 15848 kPa | 952.2
343.17 K, 15865 kPa | 952.2
343.17 K, 15884 kPa | 952.1
343.17 K, 15901 kPa | 952.2
343.17 K, 15918 kPa | 952.3
343.17 K, 15938 kPa | 952.3
343.17 K, 15955 kPa | 952.2
343.17 K, 15972 kPa | 952.2
343.17 K, 15989 kPa | 952.3
343.17 K, 16009 kPa | 952.3
343.17 K, 16025 kPa | 952.2
343.17 K, 16042 kPa | 952.3
343.17 K, 16062 kPa | 952.2
343.18 K, 14586 kPa | 951.4
343.18 K, 14600 kPa | 951.2
343.18 K, 14617 kPa | 951.3
